Here are results for two molecules from PMC3565575 (Bioorganic & medicinal chemistry, 2010).

The structures appear in SMILES notation. Some results are limits rather than exact numbers.

For experiment [1], the system named is SKOV-3 (human ovarian adenocarcinoma). The experiment can be described thus: Multi-plex cytotoxicity assay, SKOV-3. The class given is cell-based. The note with it: SKOV-3 cells.
The target in a further experiment is sigma-1 receptor (Cavia porcellus, UniProt Q60492). The experiment can be described thus: Sigma-1 receptor competitive binding against. The note with it: Sigma 1 K1 values (nM) (± SEM, n=3), R^2 value, guinea pig liver membranes, 10 nM (+)-[3H]-pentazocine, brackets: SEM.
Chain of sigma-1 receptor (Q60492 whole entry): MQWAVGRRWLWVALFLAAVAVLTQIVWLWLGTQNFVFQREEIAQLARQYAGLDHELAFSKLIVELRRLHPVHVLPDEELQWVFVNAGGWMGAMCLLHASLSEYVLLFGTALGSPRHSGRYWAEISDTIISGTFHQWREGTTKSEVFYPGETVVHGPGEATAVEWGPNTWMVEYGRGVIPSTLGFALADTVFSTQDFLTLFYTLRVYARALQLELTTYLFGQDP

In general, Ki refers to a dissociation constant, usually derived from enzyme kinetics or from competition with a known ligand.

For `CCCCN(CCCC)CCCc1ccc(F)cc1` [compound 9, N.N-Dibutyl-3-(4-fluorophenyl)propylamine], in experiment [1], the “Growth inhibition (in words)” value was “the only cell line whose growth is inhibited by compound 9”.

`CCCN(Cc1cccc([N+](=O)[O-])c1)C(=O)CCc1ccc(F)cc1` [compound 6, 3-(4-Fluorophenyl)-N-(3-nitrobenzyl)-N-propylpropanamide] showed an inhibitory constant (Ki) at sigma-1 receptor above 100000 nM.
